This passage reports Ki results from US7615651B2, “Diaryl, dipyridinyl and aryl-pyridinyl derivatives and uses thereof” (Pfizer Inc., priority 2006, dated 2009).

Each structure is given as a SMILES string.

T2 sequence (P35372 whole entry): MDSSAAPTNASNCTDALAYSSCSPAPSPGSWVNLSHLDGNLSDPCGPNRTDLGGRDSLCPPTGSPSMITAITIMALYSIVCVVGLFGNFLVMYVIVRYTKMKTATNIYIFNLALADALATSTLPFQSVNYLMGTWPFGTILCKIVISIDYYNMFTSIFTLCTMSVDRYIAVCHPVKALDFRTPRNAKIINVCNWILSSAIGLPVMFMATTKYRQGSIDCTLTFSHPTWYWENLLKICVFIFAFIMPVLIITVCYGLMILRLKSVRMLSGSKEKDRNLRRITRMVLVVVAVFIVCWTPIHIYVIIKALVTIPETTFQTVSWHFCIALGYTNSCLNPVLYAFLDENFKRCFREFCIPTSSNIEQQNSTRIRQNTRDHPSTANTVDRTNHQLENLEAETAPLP
T1 sequence (P41143 whole entry): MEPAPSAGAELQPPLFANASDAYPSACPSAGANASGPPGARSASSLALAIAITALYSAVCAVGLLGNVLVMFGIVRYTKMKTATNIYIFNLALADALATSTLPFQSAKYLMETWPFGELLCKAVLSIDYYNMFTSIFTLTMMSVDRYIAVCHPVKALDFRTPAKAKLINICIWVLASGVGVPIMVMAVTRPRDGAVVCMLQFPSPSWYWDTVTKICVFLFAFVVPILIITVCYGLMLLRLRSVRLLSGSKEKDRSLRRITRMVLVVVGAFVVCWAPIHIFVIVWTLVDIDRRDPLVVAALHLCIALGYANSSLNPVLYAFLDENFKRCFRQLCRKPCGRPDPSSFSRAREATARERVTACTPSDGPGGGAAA
T3 sequence (P41145 whole entry): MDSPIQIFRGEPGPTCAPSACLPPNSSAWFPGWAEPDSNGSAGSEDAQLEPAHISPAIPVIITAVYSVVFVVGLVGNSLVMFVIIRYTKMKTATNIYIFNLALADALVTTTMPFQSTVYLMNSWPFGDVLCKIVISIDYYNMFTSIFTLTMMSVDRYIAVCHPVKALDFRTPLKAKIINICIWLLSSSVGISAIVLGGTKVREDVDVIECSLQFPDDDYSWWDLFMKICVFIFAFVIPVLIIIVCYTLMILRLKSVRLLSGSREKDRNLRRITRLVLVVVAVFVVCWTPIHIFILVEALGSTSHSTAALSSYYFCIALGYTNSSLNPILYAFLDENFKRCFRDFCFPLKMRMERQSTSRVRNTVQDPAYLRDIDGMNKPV

One experiment addresses T1, opioid receptor delta (Homo sapiens, UniProt P41143).
T1 construct: expressed in transfected cells
As to the kind of experiment: GTPγ[35S] binding assay, antagonism of BW-373U86. Format: biochemical. Conditions: average Ki; antagonism of BW-373U86 (1 nM) at delta opioid receptor membranes; read-out: Delta functional Ki (GTPγ[35S] binding). The method, then: (§1) Membranes were prepared from cells as described (Bass et al, 1996). GTPγ[5S] binding assays were performed in a 96 well FlashPlate™ format in duplicate using […] GTPγ[^35S] and 5 μg membrane per well in assay buffer composed of 50 mM Tris HCl, pH 7.4, 5 mM MgCl2, 1 mM EDTA, 100 mM NaCl, 30 μM GDP, 0.1% bovine serum albumin and the following protease inhibitors: 100 μg/ml bacitracin, 100 μg/ml benzamidine, 5 μg/ml aprotinin, 5 μg/ml leupeptin. The assay mix was then incubated at 30° C. with increasing concentrations of antagonist (10^−10 M to 10^−5 M) for 10 minutes and challenged with the agonists BW-373U86 (1 nM), dynorphin-A (10 nM), […] (1 μM) for opioid receptors delta, kappa, and mu, respectively. The assays were performed at 30° C. for one hour. The FlashPlates were then centrifuged at 2000×g for 10 minutes. Stimulation of GTPγ[^35S] binding was then quantified using a Wallac Microbeta and Ki calculations were done using Prism™ by Graphpad.
As for `NC(=O)c1ccc(-c2ccc(CNC3Cc4ccccc4C3)cc2Cl)c(Cl)c1` [4B-68], the Ki was 0.724 nM.
As for `Cc1cc(C(N)=O)ccc1-c1cc(F)c(CNC2Cc3ccccc3C2)cc1F` [4B-75], the Ki was determined as 0.309 nM.
In the case of `CC1(C)OCC(CNCc2ccc(-c3ccc(C(N)=O)cc3Cl)c(Cl)c2)O1` (stereo not drawn) [4B-79], the Ki came out at 1.42 nM.
On the same count and under the same terms, with `Cc1cc(C(N)=O)ccc1-c1c(C)cc(CNCC2CCCO2)cc1Cl` (stereo not drawn) [4B-91] the figure was 24.5 nM; with `CC(C)CCNCc1ccc(-c2ncc(C(N)=O)cc2Cl)cc1` [4C-01], 33.8 nM; with `Cc1cc(C(N)=O)cnc1-c1ccc(CNCCC(C)C)cc1` [4C-04], 21.9 nM.
Still for that read-out and setting: with `CCOCCNCc1ccc(-c2cccc(C(N)=O)c2)c(Cl)c1` [6A-01] the figure was 25.5 nM; with `Cn1c(=O)n(C)c2cc(CNCc3ccc(-c4cccc(C(N)=O)c4)c(Cl)c3)ccc21` [6A-04], 32.3 nM.

Still in this experiment, the particulars now being: read-out: Delta functional Ki (GTPγ[35S] binding).
`CC[C@@H](NCc1c(F)cc(-c2ccc(C(N)=O)cc2C)cc1F)c1ccccn1` [4B-52]: the Ki came to 15.4 nM.
For `Cc1cc(C(N)=O)ccc1-c1cc(F)c(CN[C@H](C)c2ccccn2)c(F)c1` [4B-53], the Ki worked out at 3.74 nM.
As for `Cc1cc(C(N)=O)ccc1-c1cc(F)c(CNC2CCCC2)c(F)c1` [4B-54], the Ki turned out to be 14.5 nM.
For the compound `Cc1cc(C(N)=O)ccc1-c1cc(F)c(CNC[C@@H]2CCCO2)c(F)c1` [4B-55], the Ki amounted to 19 nM.
Same read-out and setting: with `Cc1cc(C(N)=O)ccc1-c1ccc(CNCC2CCOCC2)c(F)c1` [4B-56] the figure was 8.44 nM; with `NC(=O)c1ccc(-c2cc(F)c(CNCCC3CCOCC3)c(F)c2)c(Cl)c1` [4B-57], 168 nM.
On to `NC(=O)c1ccc(-c2ccc(CNCCC3CCOCC3)c(F)c2)c(Cl)c1` [4B-58], for which the Ki stood at 4.02 nM.
For the compound `Cc1cc(C(N)=O)ccc1-c1cc(F)c(CNCC2CCOCC2)c(F)c1` [4B-59], the Ki turned out to be 19.1 nM.
The same measure, in the same setting: with `Cc1cc(C(N)=O)ccc1-c1ccc(CNCCC2CCOCC2)c(F)c1` [4B-60] the figure was 1.43 nM.
As to `CC(C)CCNCc1ccc(-c2ccc(C(N)=O)cc2Cl)c(F)c1` [4B-61], the Ki is 12.6 nM.
On to `Cc1cc(CNCCC(C)C)ccc1-c1ccc(C(N)=O)cc1Cl` [4B-62], for which the Ki was found to be 3.58 nM.
Take `NC(=O)c1ccc(-c2ccc(CNC3Cc4ccccc4C3)c(F)c2)c(Cl)c1` [4B-63]: the Ki was 0.629 nM.
Turning to `CC(C)CCNCc1ccc(-c2ccc(C(N)=O)cc2Cl)cc1F` [4B-64], the Ki was found to be 5.64 nM.
Turning to `CC(C)CCNCc1ccc(-c2ccc(C(N)=O)cc2Cl)cc1Cl` [4B-65], the Ki came to 4.79 nM.
Same read-out and setting: with `CC(C)CCNCc1ccc(-c2ccc(C(N)=O)cc2Cl)c(Cl)c1` [4B-66] the figure was 7.52 nM.

The next experiment addresses T2, opioid receptor mu (Homo sapiens, UniProt P35372).
T2 construct: expressed in transfected cells
As to the kind of experiment: GTPγ[35S] binding assay, antagonism of endorphin. In kind it is biochemical. Conditions: average Ki; antagonism of endorphin (1 μM) at mu opioid receptor membranes; read-out: Mu functional Ki (GTPγ[35S] binding). The method, then:
as §1
Regarding `NC(=O)c1ccc(-c2ccc(CNC3Cc4ccccc4C3)cc2Cl)c(Cl)c1` [4B-68], the Ki is 0.24 nM.
With `Cc1cc(C(N)=O)ccc1-c1cc(F)c(CNC2Cc3ccccc3C2)cc1F` [4B-75], the Ki stood at 0.069 nM.
The same measure, in the same setting: with `CC1(C)OCC(CNCc2ccc(-c3ccc(C(N)=O)cc3Cl)c(Cl)c2)O1` (stereo not drawn) [4B-79] the figure was 228 nM; with `Cc1cc(C(N)=O)ccc1-c1c(C)cc(CNCC2CCCO2)cc1Cl` (stereo not drawn) [4B-91], 2.22 nM.
Take `CC(C)CCNCc1ccc(-c2ncc(C(N)=O)cc2Cl)cc1` [4C-01]: the Ki was determined as 28 nM.
For `Cc1cc(C(N)=O)cnc1-c1ccc(CNCCC(C)C)cc1` [4C-04], the Ki came to 10.5 nM.
In the case of `CCOCCNCc1ccc(-c2cccc(C(N)=O)c2)c(Cl)c1` [6A-01], the Ki was 12.8 nM.
With `Cn1c(=O)n(C)c2cc(CNCc3ccc(-c4cccc(C(N)=O)c4)c(Cl)c3)ccc21` [6A-04], the Ki amounted to 15 nM.

The same experiment, now with this note: read-out: Mu functional Ki (GTPγ[35S] binding).
For `CC[C@@H](NCc1c(F)cc(-c2ccc(C(N)=O)cc2C)cc1F)c1ccccn1` [4B-52], the Ki was found to be 138 nM.
The same measure, in the same setting: with `Cc1cc(C(N)=O)ccc1-c1cc(F)c(CN[C@H](C)c2ccccn2)c(F)c1` [4B-53] the figure was 92.7 nM; with `Cc1cc(C(N)=O)ccc1-c1cc(F)c(CNC2CCCC2)c(F)c1` [4B-54], 37 nM; with `Cc1cc(C(N)=O)ccc1-c1cc(F)c(CNC[C@@H]2CCCO2)c(F)c1` [4B-55], 30.7 nM.
As to `Cc1cc(C(N)=O)ccc1-c1ccc(CNCC2CCOCC2)c(F)c1` [4B-56], the Ki came out at 36.8 nM.
As for `NC(=O)c1ccc(-c2cc(F)c(CNCCC3CCOCC3)c(F)c2)c(Cl)c1` [4B-57], the Ki was 12.7 nM.
Still for that read-out and setting: with `NC(=O)c1ccc(-c2ccc(CNCCC3CCOCC3)c(F)c2)c(Cl)c1` [4B-58] the figure was 7.3 nM; with `Cc1cc(C(N)=O)ccc1-c1cc(F)c(CNCC2CCOCC2)c(F)c1` [4B-59], 33.3 nM.
With `Cc1cc(C(N)=O)ccc1-c1ccc(CNCCC2CCOCC2)c(F)c1` [4B-60], the Ki stood at 3.9 nM.
Take `CC(C)CCNCc1ccc(-c2ccc(C(N)=O)cc2Cl)c(F)c1` [4B-61]: the Ki came out at 25.6 nM.
Take `Cc1cc(CNCCC(C)C)ccc1-c1ccc(C(N)=O)cc1Cl` [4B-62]: the Ki was determined as 6.4 nM.
With `NC(=O)c1ccc(-c2ccc(CNC3Cc4ccccc4C3)c(F)c2)c(Cl)c1` [4B-63], the Ki was determined as 0.226 nM.
Regarding `CC(C)CCNCc1ccc(-c2ccc(C(N)=O)cc2Cl)cc1F` [4B-64], the Ki is 12.1 nM.
For the compound `CC(C)CCNCc1ccc(-c2ccc(C(N)=O)cc2Cl)cc1Cl` [4B-65], the Ki stood at 10.8 nM.
As for `CC(C)CCNCc1ccc(-c2ccc(C(N)=O)cc2Cl)c(Cl)c1` [4B-66], the Ki was 7.83 nM.

A further experiment has as its target T3, opioid receptor kappa (Homo sapiens, UniProt P41145).
T3 construct: expressed in transfected cells
In words: GTPγ[35S] binding assay, antagonism of dynorphin-A. In kind it is biochemical. Conditions: average Ki; antagonism of dynorphin-A (10 nM) at kappa opioid receptor membranes; read-out: Kappa functional Ki (GTPγ[35S] binding). The method, then: as §1
For the compound `NC(=O)c1ccc(-c2ccc(CNC3Cc4ccccc4C3)cc2Cl)c(Cl)c1` [4B-68], the Ki turned out to be 0.759 nM.
With `Cc1cc(C(N)=O)ccc1-c1cc(F)c(CNC2Cc3ccccc3C2)cc1F` [4B-75], the Ki was determined as 1.27 nM.
With `CC1(C)OCC(CNCc2ccc(-c3ccc(C(N)=O)cc3Cl)c(Cl)c2)O1` (stereo not drawn) [4B-79], the Ki is 128 nM.
For `Cc1cc(C(N)=O)ccc1-c1c(C)cc(CNCC2CCCO2)cc1Cl` (stereo not drawn) [4B-91], the Ki was 9.01 nM.
Take `CC(C)CCNCc1ccc(-c2ncc(C(N)=O)cc2Cl)cc1` [4C-01]: the Ki stood at 15.6 nM.
Regarding `Cc1cc(C(N)=O)cnc1-c1ccc(CNCCC(C)C)cc1` [4C-04], the Ki amounted to 7.23 nM.
With `CCOCCNCc1ccc(-c2cccc(C(N)=O)c2)c(Cl)c1` [6A-01], the Ki turned out to be 41.6 nM.
Turning to `Cn1c(=O)n(C)c2cc(CNCc3ccc(-c4cccc(C(N)=O)c4)c(Cl)c3)ccc21` [6A-04], the Ki was found to be 805 nM.

The experiment is the same for the next values; noted with them: read-out: Kappa functional Ki (GTPγ[35S] binding).
Regarding `CC[C@@H](NCc1c(F)cc(-c2ccc(C(N)=O)cc2C)cc1F)c1ccccn1` [4B-52], the Ki is 7.01 nM.
Take `Cc1cc(C(N)=O)ccc1-c1cc(F)c(CN[C@H](C)c2ccccn2)c(F)c1` [4B-53]: the Ki is 43.1 nM.
Take `Cc1cc(C(N)=O)ccc1-c1cc(F)c(CNC2CCCC2)c(F)c1` [4B-54]: the Ki turned out to be 15.4 nM.
Consider `Cc1cc(C(N)=O)ccc1-c1cc(F)c(CNC[C@@H]2CCCO2)c(F)c1` [4B-55], for which the Ki is 8.55 nM.
Still for that read-out and setting: with `Cc1cc(C(N)=O)ccc1-c1ccc(CNCC2CCOCC2)c(F)c1` [4B-56] the figure was 9.04 nM.
On the same count and under the same terms, with `NC(=O)c1ccc(-c2cc(F)c(CNCCC3CCOCC3)c(F)c2)c(Cl)c1` [4B-57] the figure was 4.58 nM; with `NC(=O)c1ccc(-c2ccc(CNCCC3CCOCC3)c(F)c2)c(Cl)c1` [4B-58], 1.77 nM; with `Cc1cc(C(N)=O)ccc1-c1cc(F)c(CNCC2CCOCC2)c(F)c1` [4B-59], 9.47 nM.
As for `Cc1cc(C(N)=O)ccc1-c1ccc(CNCCC2CCOCC2)c(F)c1` [4B-60], the Ki worked out at 1.49 nM.
Same read-out and setting: with `CC(C)CCNCc1ccc(-c2ccc(C(N)=O)cc2Cl)c(F)c1` [4B-61] the figure was 4.92 nM.
For the compound `Cc1cc(CNCCC(C)C)ccc1-c1ccc(C(N)=O)cc1Cl` [4B-62], the Ki stood at 2.56 nM.
`NC(=O)c1ccc(-c2ccc(CNC3Cc4ccccc4C3)c(F)c2)c(Cl)c1` [4B-63]: the Ki turned out to be 0.633 nM.
Still for that read-out and setting: with `CC(C)CCNCc1ccc(-c2ccc(C(N)=O)cc2Cl)cc1F` [4B-64] the figure was 3.97 nM; with `CC(C)CCNCc1ccc(-c2ccc(C(N)=O)cc2Cl)cc1Cl` [4B-65], 2.15 nM.
Turning to `CC(C)CCNCc1ccc(-c2ccc(C(N)=O)cc2Cl)c(Cl)c1` [4B-66], the Ki is 2.52 nM.
